As usually defined, the EC50 is the midpoint of the concentration-response curve.

T1 sequence (P21453 whole entry): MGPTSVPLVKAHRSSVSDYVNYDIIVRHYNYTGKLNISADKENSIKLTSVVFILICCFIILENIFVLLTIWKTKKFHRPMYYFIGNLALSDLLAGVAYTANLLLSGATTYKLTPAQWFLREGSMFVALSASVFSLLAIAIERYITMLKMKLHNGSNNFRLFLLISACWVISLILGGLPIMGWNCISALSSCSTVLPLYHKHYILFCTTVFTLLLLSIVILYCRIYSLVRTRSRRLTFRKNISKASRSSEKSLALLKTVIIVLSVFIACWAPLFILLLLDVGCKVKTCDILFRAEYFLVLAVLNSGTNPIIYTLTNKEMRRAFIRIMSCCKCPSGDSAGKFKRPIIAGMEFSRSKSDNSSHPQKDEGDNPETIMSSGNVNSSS

The test has as its target T1, human S1P1 receptor (Homo sapiens, UniProt P21453).
T1 construct: expressed in transfected cells; membranes used
The test can be described thus: GTP γ35S binding assay for S1P1 activity. It counts as biochemical. Conditions: membranes of cells stably expressing the S1P1 receptor, agonist potency. As to the method:
Compounds were synthesized and tested for S1P1 activity using the GTP γ^35S binding assay. These compounds may be assessed for their ability to activate or block activation of the human S1P1 receptor in cells stably expressing the S1P1 receptor.
GTP γ35S binding was measured in the medium containing (mM) HEPES 25, pH 7.4, MgCl2 10, NaCl 100, dithitothreitol dithitothreitol 0.5, digitonin 0.003%, 0.2 nM GTP γ35S, and 5 μg membrane protein in a volume of 150 μl. Test compounds were included in the concentration range from 0.08 to 5,000 nM unless indicated otherwise. Membranes were incubated with 100 μM 5′-adenylylimidodiphosphate adenylylimmidodiphosphate for 30 min, and subsequently with 10 μM GDP for 10 min on ice. Drug solutions and membrane were mixed, and then reactions were initiated by adding GTP γ35S and continued for 30 min at 25° C. Reaction mixtures were filtered over Whatman GF/B filters under vacuum, and washed three times with 3 mL of ice-cold buffer (HEPES 25, pH7.4, MgCl2 10 and NaCl 100). Filters were dried and mixed with scintillant, and counted for 35S activity using a β-counter. Agonist-induced GTP γ35S binding was obtained by subtracting that in the absence of agonist. Binding data were analyzed using a non-linear regression method. In case of antagonist assay, the reaction mixture contained 10 nM […] in the presence of test antagonist at concentrations ranging from 0.08 to 5000 nM.
Background: Binding of GTPγS marks nucleotide exchange on a G protein.
In turn, `CCCCCCc1ccc(-c2ccc(CNCCCP(=O)(O)O)c3c2CCC3)cc1` [Compound 1, [3-({[7-(4-hexylphenyl)-2,3-dihydro-1H-inden-4-yl]methyl}amino)propyl]phosphonic acid] returned an EC50 of 37.1 nM.

Compound `CCCCCCc1ccc(-c2ccc(CNCCCP(=O)(O)O)c3occc23)cc1` [Compound 2, [3-({[4-(4-hexylphenyl)-1-benzofuran-7-yl]methyl}amino)propyl]phosphonic acid] returned an EC50 of 170 nM.

The compound `CCCCCCc1ccc(-c2ccc(CNCCCP(=O)(O)O)c3ccoc23)cc1` [Compound 3, [3-({[7-(4-hexylphenyl)-1-benzofuran-4-yl]methyl}amino)propyl]phosphonic acid] registered a concentration for a half-maximal effect (EC50) of 44.4 nM.

Source of the values: US8946195B2, “Bicyclic methyl amine derivatives as sphingosine-1 phosphate receptors modulators” (Allergan, Inc., priority 2011, dated 2015).
